Laboratory results: EP1858912B1, “COMPOUNDS FOR REDUCING AGGREGATION OF AMYLOID BETA-PEPTIDE” (Alphabeta AB, priority 2005, dated 2012)
Where a SMILES comes first, the peptide text is derived from it. Bridges are numbered along the chain shown (N, C = ends). Roman numbers before positions name the chains, in order. [ ]: non-standard residue; d: D form. Dab = NCC[C@H](N)C(=O)O

Columns and labels:
[1] = test system: wild type Drosophila (WIII8) that do not express Aβ(1-42); test: Longevity in control flies not expressing Aβ; assay type: in vivo; details: 650 µM in the food; control flies not expressing Aβ (Fig. 13)
Aβ(1-40) [2] = test: Thioflavin T fluorescence assay of Aβ fibril formation; assay type: biochemical
Method: Fibril formation of Aβ(1-40) or Aβ(12-28) with and without the presence of the ligands was assessed by the fibril-binding dye thioflavin T (ThT). Solutions containing Aβ peptides in concentrations from about 20 µM to 200 µM without ligand present, or at different peptide/ligand ratios were prepared in 10 mM sodium phosphate buffer, pH 7. The samples were incubated at 37°C under constant gentle shaking. At different time points aliquots were removed and ThT measurements performed using 10 µM ThT in 10 mM sodium phosphate buffer, pH 6, containing 150mMNaCl.
The samples were incubated for 10-15 minutes in the dark before ThT fluorescence measurements were made. Fluorescence was measured using a FarCyte™ (Tecan) instrument with excitation at 440 nm and emission at 480 nm. All samples were measured in duplicates.

[3] = test system: Drosophila melanogaster express Aβ1-42 in neurons; test: Longevity in Drosophila model of Alzheimer's disease; assay type: in vivo
Text: A model of Alzheimer's disease was used in which Drosophila melanogaster express Aβ1-42 in neurons (Crowther et al., 2005, Neuroscience 132:123-135).

Aβ(12-28) [4] = test: Circular dichroism spectroscopy of Aβ secondary structure; assay type: biochemical; details: 1:1 molar ratio, sodium phosphate buffer pH 7, 30% (v/v) trifluoroethanol, 20°C; compared with Aβ(12-28) alone; ligand spectrum subtracted
Method: Compounds described herein can be tested for their ability to affect the secondary structure of an Aβ peptide. As an example, addition of ligands to Aβ(1-40) or Aβ(12-28) in solution increased the helical content of Aβ peptides, as measured by circular dichroism (CD) spectroscopy. This is evidenced by a decrease in molar ellipticity at 208 and 222 nm, and an increase in molar ellipticity at 190-195 nm (an example is shown in Fig. 6). In these experiments, Aβ peptides (concentration about 20 µM to 100 µM) were mixed with ligands in ligand/Aβ molar ratios ranging between 1 and 10. The measurements were performed in phosphate buffer (as described below for thioflavin T measurements) or in phosphate buffer containing 30% trifluoroethanol. The samples were incubated at 37°C with or without shaking before measurements. CD measurements were performed at room temperature in a Jasco 810 instrument using a 1 mm cuvette (sample volume 200-300 µl). For each sample, three spectra were accumulated. Spectra were measured between 260 and 185 nm, and the spectra of buffer and ligands alone were subtracted from the spectra of the mixtures. Molar ellipticity values were calculated using the recorded spectra and the peptide concentrations, and expressed in kdeg x cm^2/dmol. […]

Aβ(12-28) [5] = test: Tryptophan fluorescence emission of ligand (binding to Aβ); details: after addition of Aβ(12-28); excitation 280 nm
Method: (§1) In these experiments, shifts in fluorescence emission were used to indicate binding. In these experiments, ligand 3 (about 10 µM) was dissolved in sodium phosphate buffer, pH 7, with or without trifluoroethanol present. Fluorescence was measured in a Hitachi F-4000 spectrophotometer, and emission was measured between 300 and 430 nm after excitation at 280 nm.
(§2) When Aβ(1-40) or Aβ(12-28) was added to a solution containing ligand 3, the fluorescence yield was increased (e.g., Fig 7) and the wavelength at maximum emission was shifted from about 348 nm to 344 nm.

Aβ(1-40) [6] = test: as above; details: excitation 280 nm; for emission maximum: sodium phosphate buffer pH 7, 30% (v/v) trifluoroethanol, 20°C
Method: as §1, §2

fluorescence yield (Aβ(12-28) [5]): increased
wavelength at maximum emission (Aβ(12-28) [5]): 344 nm
fluorescence yield (Aβ(1-40) [6]; after addition of Aβ(1-40)): increased
wavelength at maximum emission (Aβ(1-40) [6]; after addition of Aβ(1-40)): 344 nm
emission maximum (Aβ(1-40) [6]; complex with Aβ(1-40), 1:1 molar ratio): 344 nm
wavelength at maximum emission (Aβ(1-40) [6]; ligand about 10 µM before addition of Aβ): about 348 nm
emission maximum (Aβ(1-40) [6]; ligand only): 348 nm
SMILES: CC(=O)N[C@H](CCC(=O)O)C(=O)N[C@@H](CCNC(=O)[C@@H](Cc1c[nH]c2ccccc12)NC(=O)[C@@H](N)CCCNC(=N)N)C(=O)O [ligand 3, Ac-D-Glu-Dab(Arg-D-Trp)] (I: H-Arg-[dW] / II: Ac-[dE]-[Dab]-OH; amide I:C-II:2)
effects on mean survival (longevity) [1]: absence of a statistically significant difference
Aβ(1-40) fibril formation, as measured by ThT binding (Aβ(1-40) [2]; 1:1 ligand/peptide molar ratio, 1.5 hours at 37°C (Fig. 9)): effective in reducing Aβ(1-40) fibril formation
ThT fluorescence induced by Aβ(1-40) (Aβ(1-40) [2]; different periods of incubation at 37°C, 10 mM sodium phosphate pH 7, 5:1 or 10:1 ligand/Aβ molar ratio (Fig. 8)): practically abolished
ThT fluorescence (Aβ(1-40) [2]; ligand/Aβ ratio 5, compared with 1:1, 1.5 hours at 37°C (Fig. 9)): further reduction of ThT fluorescence
ThT fluorescence (Aβ(1-40) [2]; ligand/Aβ ratio 10, 1.5 hours at 37°C (Fig. 9)): approximately the same result as a ligand/Aβ ratio of 5
mean survival time ([3]; 134 µM in the food, 29°C and high humidity (Fig. 12)): increased the mean survival time
mean survival time ([3]; 650 µM in the food, 28°C and low humidity, p=0.0035 (Fig. 11)): prolonged mean survival time
longevity ([3]; fed from the larval stage, compared to untreated flies, two different experimental conditions): significant increase in longevity
circular dichroism spectra (Aβ(12-28) [4]): lowest value at 222 nm and highest value at 195 nm
